Results reported in article PMC5908295 (Oncotarget, 2018).
Like-named read-outs stand apart in the source and are kept apart here.

Legend:
[1] = system: MOLM-14 cells transduced with FLT3 TKD point mutations (D835Y, D835V and F691L); test: MTS viability of MOLM-14 cells with FLT3 alleles; assay type: cell-based; settings: 72 h
[2] = system: RS4;11; test: MTS viability assay, 72 h; settings: Homo sapiens, RS4-11, 72 h
Protocol: (§8) 15-25 ×10^3 of MV-4-11, MOLM-13, MOLM-14, MOLM-16, KG-1, Eol-1, SKM-1, PL-21, GDM-1, SKNO-1, RS4;11, Kasumi-3 and Kasumi-6 cells were seeded in 150 μL of culture medium onto individual wells in a 96 well plates, in triplicates. On the same day, 50 μL of medium containing tested inhibitor was added to the wells. Each compound was tested at 8 concentrations, in triplicates. As a negative control, the medium containing 0.1% DMSO was used. […] Staurosporine was used at 10 μM as a positive control. One the day of drug addition, basal signal from untreated cells was measured from in triplicate to determine time zero (T0). […] GI50 and LC50 values were extrapolated from a variable (four-parameter) dose-response curve fitted in GraphPad Prism.

[3] = Metabolic stability, liver S9 fraction; assay type: in vitro ADME; settings: Mouse, 37 °C, read-out: Liver S9 fraction t1/2 (converted)
[4] = biological target: PIM2 (Homo sapiens, UniProt Q9P1W9); test: KINOMEscan Kd (DiscoverX); assay type: binding
[5] = biological target: FLT3wt (Homo sapiens, UniProt P36888); test: KINOMEscan Kd (DiscoverX); assay type: binding
[6] = system: MOLM-6; test: MTS viability assay, 72 h; settings: 72 h
Protocol: as §8

[7] = biological target: T1, CYP3A4 (Homo sapiens, UniProt P08684); test: CYP isoforms inhibition; assay type: in vitro ADME; settings: 5-dose, 3-fold dilution starting at 30 µM
T1 construct: Cambridge Bioscience Limited (ran the assay)
Protocol: (§1) or absence of enzyme cofactors. The assay was performed microsomes. (Supplementary Table 7).
(§2) with the respective reference samples (i.e. without measured at Cambridge Bioscience Limited (except
(§3) cofactors). After incubation, drug transformation by liver CYP1A2 inhibition which was measured in-house). […]
(§4) The control compound
(§5) The analysis of two standard compounds (i.e. positive a very weak potential for CYP inhibition with IC50
(§6) and negative controls) was included. […]

[8] = biological target: T2, CYP2D6 (Homo sapiens, UniProt P10635); test: CYP isoforms inhibition; assay type: in vitro ADME; settings: 5-dose, 3-fold dilution starting at 30 µM
T2 construct: Cambridge Bioscience Limited (ran the assay)
Protocol: as §1, §2, §3, §4, §5, §6

[9] = biological target: T3, CYP2C19 (Homo sapiens, UniProt P33261); test: CYP isoforms inhibition; assay type: in vitro ADME; settings: 5-dose, 3-fold dilution starting at 30 µM
T3 construct: Cambridge Bioscience Limited (ran the assay)
Protocol: as §1, §2, §3, §4, §5, §6

[10] = biological target: T4, CYP2C9 (Homo sapiens, UniProt P11712); test: CYP isoforms inhibition; assay type: in vitro ADME; settings: 5-dose, 3-fold dilution starting at 30 µM
T4 construct: Cambridge Bioscience Limited (ran the assay)
Protocol: as §1, §2, §3, §5, §6

[11] = Metabolic stability, liver S9 fraction; assay type: in vitro ADME; settings: Rat, 37 °C, read-out: Liver S9 fraction t1/2 (converted)
[12] = system: GDM-1; test: MTS viability assay, 72 h; settings: Homo sapiens, GDM-1, 72 h
Protocol: as §8

[13] = system: S6 phosphorylation (Ser235/236) in MV-4-11 cells; test: S6 phosphorylation, Western blot; assay type: cell-based; settings: Homo sapiens, MV4-11; MV-4-11, 4 hours; read-out: IC50 S6 phosphorylation (Ser235/236), Western blotting
Protocol: (§7) Cells were collected, washed twice with cold PBS, and lysed in RIPA buffer and kept on ice for 10 min. Tumor specimens from xenograft studies were homogenized in RIPA buffer using OMNI TH Tissue Homogenizer and kept on ice for 30 min. After incubation, cell and tumor lysates were centrifuged at 13,000×g at 4°C for 10 min and the supernatants were stored at −80°C until use. Protein concentration was measured using the Bradford method. For SDS-PAGE, 50 μg of protein in the Laemmli sample buffer was loaded onto 10% polyacrylamide gels and electrophoresed. Thereafter, proteins were transferred onto polyvinylidene fluoride (PVDF) membranes (Millipore). After blocking with 5% non-fat dry milk/TBS-T or 2% BSA/TBS-T, membranes were incubated with specific primary antibodies (listed in Supplementary Table 2) at 4 °C overnight. After extensive washing in PBS-T, membranes were incubated for 60 min with appropriate secondary peroxidase-conjugated IgG. The immunoreactive proteins were detected using an enhanced chemiluminescence (ECL) substrate (GE Healthcare) and visualized with Hyperfilm-ECL (GE Healthcare Biosciences).

[14] = system: S6 phosphorylation (Ser235/236) in KG-1 cells; test: S6 phosphorylation, Western blot; assay type: cell-based; settings: Homo sapiens; KG-1, 4 hours; read-out: IC50 S6 phosphorylation (Ser235/236), Western blotting
Protocol: as §7

[15] = system: S6 phosphorylation (Ser235/236) in MOLM-16 cells; test: S6 phosphorylation, Western blot; assay type: cell-based; settings: MOLM16; MOLM-16, 4 hours; read-out: IC50 S6 phosphorylation (Ser235/236), Western blotting
Protocol: as §7

[16] = system: S6 phosphorylation (Ser235/236) in MOLM-13 cells; test: S6 phosphorylation, Western blot; assay type: cell-based; settings: Homo sapiens; MOLM-13, 4 hours; read-out: IC50 S6 phosphorylation (Ser235/236), Western blotting
Protocol: as §7

[17] = system: KG-1 (FLT3-WT) tumor; test: KG-1 subcutaneous xenograft; assay type: in vivo; settings: KG-1, SCID mice; doses not given
Description: All animals were handled in strict accordance with good animal practice as defined by the relevant national and local animal welfare bodies. SCID and SCID/beige C.B-17 mice were provided by Harlan Laboratories or Charles River Laboratories, and were maintained in pathogen free conditions. For the xenograft experiments, age-matched (9-11 weeks old) females were used. 5×10^6 of MV-4-11 or MOLM-16 cells were suspended in a mixture (1:1, v:v) of PBS with Matrigel (BD Biosciences,) and injected subcutaneously (sc), in a total volume of 100 μL, above the groin on the right hind limb. For MOLM-13 and KG-1 cells, a mixture (3:1, v:v) of PBS and Matrigel HC (BD Bioscience,) was used to inject 5 × 10^6 of cell per mouse subcutaneously (sc), in a total volume of 100 μL. When tumors reached 100-130 mm^3, mice were randomized into uniform groups (6-9 mice per group) and subsequently administered the compound. […] At the end of the experiment, mice were anesthetized with isofluran and blood samples for total cell counts and biochemistry were obtained by retro-orbital bleeding. […] 5×10^6 cells suspended in a mixture (3:1, v:v) of PBS and Matrigel were injected as described above. […] Tumor volume was monitored every second day and calculated using the formula: TV = (a^2×b)/2, where “a” is the short axis in millimeters, and “b” is the long axis in millimeters. Body weight was assessed every day.

[18] = system: SKM-1; test: MTS viability assay, 72 h; settings: Homo sapiens, SKM-1, 72 h
Protocol: On the same day, 50 μL of medium containing tested inhibitor was added to the wells. Each compound was tested at 8 concentrations, in triplicates. As a negative control, the medium containing 0.1% DMSO was used. […] Staurosporine was used at 10 μM as a positive control. One the day of drug addition, basal signal from untreated cells was measured from in triplicate to determine time zero (T0). […] GI50 and LC50 values were extrapolated from a variable (four-parameter) dose-response curve fitted in GraphPad Prism.

T3 sequence (P33261 whole entry, canonical isoform): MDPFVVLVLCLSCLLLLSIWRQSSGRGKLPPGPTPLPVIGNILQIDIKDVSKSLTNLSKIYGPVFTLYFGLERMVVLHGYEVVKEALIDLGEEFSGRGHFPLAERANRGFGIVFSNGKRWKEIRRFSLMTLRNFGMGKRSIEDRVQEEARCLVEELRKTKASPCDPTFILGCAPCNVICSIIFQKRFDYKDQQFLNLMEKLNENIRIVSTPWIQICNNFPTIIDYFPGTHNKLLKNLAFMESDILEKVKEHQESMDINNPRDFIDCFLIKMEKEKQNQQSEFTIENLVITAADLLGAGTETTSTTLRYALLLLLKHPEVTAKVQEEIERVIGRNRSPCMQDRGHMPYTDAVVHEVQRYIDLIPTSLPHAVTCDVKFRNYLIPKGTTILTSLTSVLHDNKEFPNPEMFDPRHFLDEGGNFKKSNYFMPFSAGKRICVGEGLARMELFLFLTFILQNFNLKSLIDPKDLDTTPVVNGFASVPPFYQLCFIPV
T4 sequence (P11712 whole entry, canonical isoform): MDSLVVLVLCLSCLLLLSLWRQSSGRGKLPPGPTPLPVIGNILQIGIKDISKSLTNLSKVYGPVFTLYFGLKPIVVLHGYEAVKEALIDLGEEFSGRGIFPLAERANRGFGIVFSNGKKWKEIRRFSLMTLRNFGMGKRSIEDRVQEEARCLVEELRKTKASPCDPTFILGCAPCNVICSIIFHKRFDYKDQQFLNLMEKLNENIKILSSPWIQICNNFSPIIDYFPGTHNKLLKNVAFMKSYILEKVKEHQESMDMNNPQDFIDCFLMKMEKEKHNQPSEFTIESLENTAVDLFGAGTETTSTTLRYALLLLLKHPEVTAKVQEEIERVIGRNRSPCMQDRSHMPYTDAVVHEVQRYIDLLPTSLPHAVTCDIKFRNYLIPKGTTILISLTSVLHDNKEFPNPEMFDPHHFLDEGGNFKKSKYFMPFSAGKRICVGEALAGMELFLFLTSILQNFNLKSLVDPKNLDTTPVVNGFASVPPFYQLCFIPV
T1 sequence (P08684 whole entry, canonical isoform): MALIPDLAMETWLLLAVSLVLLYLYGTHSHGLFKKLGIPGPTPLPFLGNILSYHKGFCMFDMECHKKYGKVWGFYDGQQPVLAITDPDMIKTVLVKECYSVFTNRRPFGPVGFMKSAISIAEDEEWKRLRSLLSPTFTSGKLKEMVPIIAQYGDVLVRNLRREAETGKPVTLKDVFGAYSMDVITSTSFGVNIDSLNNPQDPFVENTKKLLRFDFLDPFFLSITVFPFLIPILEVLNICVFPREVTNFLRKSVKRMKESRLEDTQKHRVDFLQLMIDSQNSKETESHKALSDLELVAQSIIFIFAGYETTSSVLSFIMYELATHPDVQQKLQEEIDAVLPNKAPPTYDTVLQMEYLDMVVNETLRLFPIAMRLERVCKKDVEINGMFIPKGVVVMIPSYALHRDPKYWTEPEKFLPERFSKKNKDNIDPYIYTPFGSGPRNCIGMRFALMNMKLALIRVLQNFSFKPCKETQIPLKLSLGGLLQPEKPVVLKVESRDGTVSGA
Chain of FLT3wt (P36888 27-993): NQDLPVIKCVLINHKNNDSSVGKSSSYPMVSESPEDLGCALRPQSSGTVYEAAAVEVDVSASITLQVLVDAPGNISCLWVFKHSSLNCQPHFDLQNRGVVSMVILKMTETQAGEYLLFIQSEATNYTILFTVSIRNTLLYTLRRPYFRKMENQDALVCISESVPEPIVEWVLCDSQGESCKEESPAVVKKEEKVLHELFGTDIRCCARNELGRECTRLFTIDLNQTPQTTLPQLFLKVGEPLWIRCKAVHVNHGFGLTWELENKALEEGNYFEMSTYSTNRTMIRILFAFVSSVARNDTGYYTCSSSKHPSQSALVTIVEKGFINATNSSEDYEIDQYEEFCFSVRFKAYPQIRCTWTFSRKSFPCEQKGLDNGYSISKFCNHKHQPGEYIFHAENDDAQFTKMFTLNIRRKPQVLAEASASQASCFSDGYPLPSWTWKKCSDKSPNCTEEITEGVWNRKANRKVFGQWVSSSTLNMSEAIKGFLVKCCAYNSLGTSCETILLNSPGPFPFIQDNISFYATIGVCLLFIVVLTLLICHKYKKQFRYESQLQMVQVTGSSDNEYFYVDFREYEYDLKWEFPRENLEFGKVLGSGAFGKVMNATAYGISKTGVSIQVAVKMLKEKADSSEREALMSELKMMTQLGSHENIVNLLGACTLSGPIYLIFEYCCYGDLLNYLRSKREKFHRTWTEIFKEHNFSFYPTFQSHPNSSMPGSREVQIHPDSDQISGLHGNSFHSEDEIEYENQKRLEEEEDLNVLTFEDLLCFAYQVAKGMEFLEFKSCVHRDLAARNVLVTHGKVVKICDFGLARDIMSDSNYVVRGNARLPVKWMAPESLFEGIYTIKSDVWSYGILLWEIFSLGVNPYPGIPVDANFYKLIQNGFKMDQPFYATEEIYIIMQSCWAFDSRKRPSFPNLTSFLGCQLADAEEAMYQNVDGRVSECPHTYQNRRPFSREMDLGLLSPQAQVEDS
T2 sequence (P10635 whole entry, canonical isoform): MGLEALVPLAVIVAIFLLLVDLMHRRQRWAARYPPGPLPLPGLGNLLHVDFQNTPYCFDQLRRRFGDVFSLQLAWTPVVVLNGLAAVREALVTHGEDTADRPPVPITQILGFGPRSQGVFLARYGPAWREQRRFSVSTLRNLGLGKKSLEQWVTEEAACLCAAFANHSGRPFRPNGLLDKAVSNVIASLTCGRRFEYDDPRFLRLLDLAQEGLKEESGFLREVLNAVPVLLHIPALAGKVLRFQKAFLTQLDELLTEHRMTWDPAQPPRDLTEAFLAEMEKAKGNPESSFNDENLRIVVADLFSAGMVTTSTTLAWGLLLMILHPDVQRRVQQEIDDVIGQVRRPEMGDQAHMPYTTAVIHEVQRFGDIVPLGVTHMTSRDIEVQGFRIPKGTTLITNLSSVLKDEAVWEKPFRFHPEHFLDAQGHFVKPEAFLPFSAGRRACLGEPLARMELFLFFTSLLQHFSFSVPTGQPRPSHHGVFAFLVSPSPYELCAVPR
Chain of PIM2 (Q9P1W9 whole entry): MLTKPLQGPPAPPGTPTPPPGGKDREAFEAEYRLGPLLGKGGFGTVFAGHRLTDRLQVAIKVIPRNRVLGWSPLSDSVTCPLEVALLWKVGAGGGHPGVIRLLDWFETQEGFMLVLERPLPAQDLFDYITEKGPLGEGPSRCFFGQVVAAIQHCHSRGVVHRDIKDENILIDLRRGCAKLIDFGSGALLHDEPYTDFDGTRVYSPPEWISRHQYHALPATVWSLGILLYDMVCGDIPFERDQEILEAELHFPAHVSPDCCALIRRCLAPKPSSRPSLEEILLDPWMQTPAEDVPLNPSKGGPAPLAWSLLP

In the case of `CC(C)n1c(C2CCNCC2)nc2c([N+](=O)[O-])c(Br)c(Br)cc21` [SEL24-B489, 5,6-dibromo-4-nitro-2-(piperidin-4-yl)-1-(propan-2-yl)-1H-1,3-benzodiazole], the “viability of MOLM-14 cells with FLT3-TKD mutants versus FLT3-ITD or parental cells” value [1] is reported as “neither of the FLT3 TKD point mutations decreased the cellular sensitivity”, the GI50 [2] is reported as 190 nM and the CC50 ([2]; read-out: LC50) is reported as 2160 nM. For the same compound, the half-life at 1 µM [3] was 2.6 h, the Kd [4] was 2 nM and the Kd [5] was 160 nM. For the same compound, the GI50 [6] was 449 nM, the CC50 ([6]; read-out: LC50) was 7200 nM and the IC50 [7] was greater than 100000 nM. The IC50 [8] was 10000 nM, the IC50 [9] was greater than 70000 nM and the IC50 [10] was greater than 150000 nM. It also gave a half-life at 1 µM [11] of 4.3 h, a GI50 [12] of 680 nM and an IC50 [13] of 1 nM. The IC50 [14] was 31 nM, the IC50 [15] was 35 nM and the IC50 [16] was 3 nM. For the same compound, the TGI [17] was ~ 50%, the GI50 [18] was 732 nM and the CC50 ([18]; read-out: LC50) was 7770 nM.
